This is an account of results in patent publication US9382230B2, “Methods and compositions for modulating Ire1, SRC and ABL activity” (The Regents of the University of California, priority 2008, dated 2016).

For experiment [1], the system named is XBP1-GFP reporter in Hek293-FT cells. The experiment is described as follows: FACS on Hek293-FT cells transfected with XBP1-GFP reporter. The class given is cell-based. Particulars: treated for 24 hrs. As for the experimental part:
Exemplary compounds were assayed and the results are set froth in the table below.

The subject of experiment [2] is Xbp-1 mRNA splicing (UPR activation through Ire1) in HEK293 cells. Put plainly: XBP-1 mRNA splicing by RT-PCR in HEK293 cells (UPR). Format: cell-based, mammalian. The note with it: for % splicing mRNA XBP-I Average: Hek293 cells treated for 4 hrs, RT-PCR; for in vivo activation of Ire1: summary statement. As to the method: The effect of tunicamycin, SU11248, DJM2005, APY24, and APY29 on Ire1 activity was tested in mammalian cells using HEK293 cells as a model system. Cells were treated according to the methods described in Lin J H et al., Science 318:944 (2007). After treatment with the corresponding agents for the indicated time, Xbp-1 mRNA splicing was determined by RT-PCR. Unspliced (u) and spliced (s) Xbp1-mRNA products are indicated and serve as a measure of UPR activation through Ire1.
Exemplary compounds were assayed for their effect on UPR. Results are set forth in FIGS. 18-19 and in the table below.

In a further experiment the test system is Ire1. Put plainly: Summary statement of Ire1 activation or inhibition (assay not specified).
In a further experiment the target is T1, yIre1 (Saccharomyces cerevisiae, UniProt P32361).
T1 construct: GST (N); made in house; host or cells: E. coli BL21 CodonPlus (RIPL)
T1 sequence (P32361 with tags, fused parts or gaps limits assumed): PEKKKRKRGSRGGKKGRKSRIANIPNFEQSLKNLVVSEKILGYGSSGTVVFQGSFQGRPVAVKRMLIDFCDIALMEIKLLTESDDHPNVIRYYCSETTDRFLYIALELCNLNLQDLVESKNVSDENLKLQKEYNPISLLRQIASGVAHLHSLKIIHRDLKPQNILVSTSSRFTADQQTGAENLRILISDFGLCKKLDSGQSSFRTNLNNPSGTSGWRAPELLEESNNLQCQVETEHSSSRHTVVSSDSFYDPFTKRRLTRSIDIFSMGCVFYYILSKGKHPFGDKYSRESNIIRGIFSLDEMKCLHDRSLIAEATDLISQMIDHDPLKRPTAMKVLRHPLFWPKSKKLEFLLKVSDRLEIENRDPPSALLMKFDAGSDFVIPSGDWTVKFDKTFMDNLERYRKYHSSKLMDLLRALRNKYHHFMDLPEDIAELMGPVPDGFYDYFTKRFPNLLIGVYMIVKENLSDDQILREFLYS
Put plainly: RNA cleavage-based yIre1 activation assay. The class given is biochemical, yeast. On the set-up: unit not given here. The note with it: 3 μM yIre1, stem loop RNA, 15 μM effector. As for the experimental part: The RNase Cleavage Assay.
RNA cleavage reactions were conducted at 30° C. in buffer containing 20 mM HEPES (pH 7.5), 70 mM NaCl, 2 mM ADP (pH 7.0), 2 mM Mg(OAc)2, 5 mM DTT, 5% glycerol, less than 1 nM ^32p-labeled RNA substrate, and 3 nM-20 μM Ire1. Reaction solutions and buffers were designed using Biochem Lab Solutions 3.5. Reactions were prepared such that 1 μl of RNA was added to 9 μl of pre-warmed reaction mixture containing all components except RNA. Typically, 3-10 minute time courses were collected starting from 5 seconds for the first time point. At time intervals, 1 μl of solution was withdrawn from each reaction and mixed wish 6 μl stop solution containing 10 M urea, 0.1% SDS, 0.1 mM EDTA, 0.05% xylene cyanol, and 0.05% bromophenol blue. The samples were separated by a denaturing 10% PAGE and exposed on a phosphor storage screen. The screens were scanned on a Storm or a Typhoon instrument and quantified using ImageQuant 5.0 or GelQuant.NET 1.4 programs. The data were plotted and fit in SigmaPlot 6.0.
RNA cleavage can be used to assess yIre1 activation as shown by FIG. 20 and the table below (3 μM yIre1, stem loop RNA, 15 μM effector): […]

On to tunicamycin [Tm, reference compound], for which, in experiment [1] (Tm alone), the “% fold induction to Control” value came out at 59% and the Mean fluorescence is 3869. In addition, the “% splicing mRNA XBP-I Average” value in experiment [2] (Tm alone) is on record as 78%.

Turning to `N#CCc1ccc(Nc2nccc(Nc3cc(-c4cccs4)n[nH]3)n2)cc1` [APY84], the “% splicing mRNA XBP-I Average” value in experiment [2] (Tm 0.3 ug/ml + compound 2 μM) was 12%; in experiment [2] (compound 2 μM) it was 21%; in experiment [2] (compound 10 μM) it was 60%. The “in vivo activation of Ire1” value in experiment [2] is “significant in vivo activation”. Further, the “inhibition of Ire1” value with Ire1 was “significant inhibition”. Moreover, the “RNA cleavage (yIre1 activation)” value on yIre1 is on record as 0.004672.

On to `Cc1ccc(-c2cc(Nc3nc(Nc4ccc(CC#N)cc4)nc4ccccc34)[nH]n2)s1` [APY85], for which the figures for the “% splicing mRNA XBP-I Average” value in experiment [2] (Tm 0.3 ug/ml + compound 2 μM), in experiment [2] (compound 2 μM) and in experiment [2] (compound 10 μM) were 13%, 15% and 14%, respectively. The “activation of Ire1” value in the experiment on Ire1 is given as “significant activation”. Also, the “RNA cleavage (yIre1 activation)” value on yIre1 came out at 0.003287.

Consider `CC(=O)Nc1ccc(Nc2nccc(Nc3cc(C4CCCCC4)n[nH]3)n2)cc1` [APY36], for which the “% splicing mRNA XBP-I Average” value stood at 16% in experiment [2] (Tm 0.3 ug/ml + compound 2 μM), 10% in experiment [2] (compound 2 μM) and 19% in experiment [2] (compound 10 μM). In addition, the “RNA cleavage (yIre1 activation)” value at yIre1 is on record as 0.000897.

Take `N#CCc1ccc(Nc2nccc(Nc3cc(C4CCCCC4)n[nH]3)n2)cc1` [APY34]: the “% fold induction to Control” value in experiment [1] (Tm 0.3 ug/ml + compound 2 uM) was 78%; in experiment [1] (compound 2 uM) it was 17%. Further, the Mean fluorescence in experiment [1] (Tm 0.3 ug/ml + compound 2 uM) came out at 4318; in experiment [1] (compound 2 uM), 2836. Further, the “% splicing mRNA XBP-I Average” value in experiment [2] (Tm 0.3 ug/ml + compound 2 μM) is 7%; in experiment [2] (compound 2 μM) it was 12%; in experiment [2] (compound 10 μM), 34%. On yIre1, the “RNA cleavage (yIre1 activation)” value was found to be 0.0014.

Regarding `N#CCc1ccc(Nc2nc(Nc3cc(C4CCCC4)n[nH]3)c3ccccc3n2)cc1` [APY78], the “% splicing mRNA XBP-I Average” value in experiment [2] (Tm 0.3 ug/ml + compound 2 μM) was 11%; in experiment [2] (compound 2 μM), 11%; in experiment [2] (compound 10 μM) it was 27%. Besides, the “RNA cleavage (yIre1 activation)” value at yIre1 was 0.002028.

In the case of `Cc1cc(Nc2cc(C3CCC3)n[nH]2)nc(Nc2ccc(CC#N)cc2)n1` [APY83], the “% splicing mRNA XBP-I Average” value in experiment [2] (Tm 0.3 ug/ml + compound 2 μM) was 29%; in experiment [2] (compound 2 μM) it was 21%; in experiment [2] (compound 10 μM) it was 55%. Further, the “in vivo activation of Ire1” value in experiment [2] is given as “significant in vivo activation”. Further, the “activation of Ire1” value in the experiment on Ire1 is recorded as “significant activation”. In addition, at yIre1, the “RNA cleavage (yIre1 activation)” value is recorded as 0.02693.

Consider `CC(=O)Nc1ccc(Nc2nccc(Nc3cc(C4CCCC4)n[nH]3)n2)cc1` [APY75], for which the “% splicing mRNA XBP-I Average” value in experiment [2] (Tm 0.3 ug/ml + compound 2 μM) was found to be 44%; in experiment [2] (compound 2 μM), 9%; in experiment [2] (compound 10 μM), 17%. Also, the “RNA cleavage (yIre1 activation)” value on yIre1 amounted to 0.00175.

In the case of `N#CCc1ccc(Nc2nc(Nc3cc(C4CCC4)n[nH]3)c3ccccc3n2)cc1` [APY82], the “% splicing mRNA XBP-I Average” value in experiment [2] (Tm 0.3 ug/ml + compound 2 μM) amounted to 27%; in experiment [2] (compound 2 μM), 29%; in experiment [2] (compound 10 μM) it was 27%. For the same compound, the “in vivo activation of Ire1” value in experiment [2] is “significant in vivo activation”. The “RNA cleavage (yIre1 activation)” value on yIre1 stood at 0.002172.

For the compound `OCCc1ccc(Nc2nccc(Nc3cc(C4CCCC4)n[nH]3)n2)cc1` [APY76], the “% splicing mRNA XBP-I Average” value is given as 11% in experiment [2] (Tm 0.3 ug/ml + compound 2 μM), 23% in experiment [2] (compound 2 μM) and 39% in experiment [2] (compound 10 μM). For the same compound, the “in vivo activation of Ire1” value in experiment [2] is listed as “significant in vivo activation”. Moreover, in the experiment on Ire1, the “activation of Ire1” value was “significant activation”. For the same compound, the “RNA cleavage (yIre1 activation)” value at yIre1 amounted to 0.03994.

Regarding `N#CCc1ccc(Nc2nc(Nc3cc(C4CCCCC4)n[nH]3)c3ccccc3n2)cc1` [APY79], the “RNA cleavage (yIre1 activation)” value at yIre1 is 0.000626.
